Where two headings read alike, the source gives them in different places.
Tests used:
Experiment in all cases: cell-based
[1] = target: hNav1.4 (Homo sapiens, UniProt P35499); assay type: cell-based; details: for IC50: read-out: IC50 (μM) Nav1.4; for Nav1.4/Nav1.7: ratio of IonWorks Quattro IC50 values
[2] = target: hNav1.7 (Homo sapiens, UniProt Q15858); details: for IC50: read-out: IC50 (μM) Nav1.7
[3] = target: hNav1.3 (Homo sapiens, UniProt Q9NY46); details: read-out: IC50 (μM) Nav1.3
[4] = target: hNav1.5 (Homo sapiens, UniProt Q14524); details: read-out: IC50 (μM) Nav1.5

Sequence of hNav1.7 (Q15858 whole entry): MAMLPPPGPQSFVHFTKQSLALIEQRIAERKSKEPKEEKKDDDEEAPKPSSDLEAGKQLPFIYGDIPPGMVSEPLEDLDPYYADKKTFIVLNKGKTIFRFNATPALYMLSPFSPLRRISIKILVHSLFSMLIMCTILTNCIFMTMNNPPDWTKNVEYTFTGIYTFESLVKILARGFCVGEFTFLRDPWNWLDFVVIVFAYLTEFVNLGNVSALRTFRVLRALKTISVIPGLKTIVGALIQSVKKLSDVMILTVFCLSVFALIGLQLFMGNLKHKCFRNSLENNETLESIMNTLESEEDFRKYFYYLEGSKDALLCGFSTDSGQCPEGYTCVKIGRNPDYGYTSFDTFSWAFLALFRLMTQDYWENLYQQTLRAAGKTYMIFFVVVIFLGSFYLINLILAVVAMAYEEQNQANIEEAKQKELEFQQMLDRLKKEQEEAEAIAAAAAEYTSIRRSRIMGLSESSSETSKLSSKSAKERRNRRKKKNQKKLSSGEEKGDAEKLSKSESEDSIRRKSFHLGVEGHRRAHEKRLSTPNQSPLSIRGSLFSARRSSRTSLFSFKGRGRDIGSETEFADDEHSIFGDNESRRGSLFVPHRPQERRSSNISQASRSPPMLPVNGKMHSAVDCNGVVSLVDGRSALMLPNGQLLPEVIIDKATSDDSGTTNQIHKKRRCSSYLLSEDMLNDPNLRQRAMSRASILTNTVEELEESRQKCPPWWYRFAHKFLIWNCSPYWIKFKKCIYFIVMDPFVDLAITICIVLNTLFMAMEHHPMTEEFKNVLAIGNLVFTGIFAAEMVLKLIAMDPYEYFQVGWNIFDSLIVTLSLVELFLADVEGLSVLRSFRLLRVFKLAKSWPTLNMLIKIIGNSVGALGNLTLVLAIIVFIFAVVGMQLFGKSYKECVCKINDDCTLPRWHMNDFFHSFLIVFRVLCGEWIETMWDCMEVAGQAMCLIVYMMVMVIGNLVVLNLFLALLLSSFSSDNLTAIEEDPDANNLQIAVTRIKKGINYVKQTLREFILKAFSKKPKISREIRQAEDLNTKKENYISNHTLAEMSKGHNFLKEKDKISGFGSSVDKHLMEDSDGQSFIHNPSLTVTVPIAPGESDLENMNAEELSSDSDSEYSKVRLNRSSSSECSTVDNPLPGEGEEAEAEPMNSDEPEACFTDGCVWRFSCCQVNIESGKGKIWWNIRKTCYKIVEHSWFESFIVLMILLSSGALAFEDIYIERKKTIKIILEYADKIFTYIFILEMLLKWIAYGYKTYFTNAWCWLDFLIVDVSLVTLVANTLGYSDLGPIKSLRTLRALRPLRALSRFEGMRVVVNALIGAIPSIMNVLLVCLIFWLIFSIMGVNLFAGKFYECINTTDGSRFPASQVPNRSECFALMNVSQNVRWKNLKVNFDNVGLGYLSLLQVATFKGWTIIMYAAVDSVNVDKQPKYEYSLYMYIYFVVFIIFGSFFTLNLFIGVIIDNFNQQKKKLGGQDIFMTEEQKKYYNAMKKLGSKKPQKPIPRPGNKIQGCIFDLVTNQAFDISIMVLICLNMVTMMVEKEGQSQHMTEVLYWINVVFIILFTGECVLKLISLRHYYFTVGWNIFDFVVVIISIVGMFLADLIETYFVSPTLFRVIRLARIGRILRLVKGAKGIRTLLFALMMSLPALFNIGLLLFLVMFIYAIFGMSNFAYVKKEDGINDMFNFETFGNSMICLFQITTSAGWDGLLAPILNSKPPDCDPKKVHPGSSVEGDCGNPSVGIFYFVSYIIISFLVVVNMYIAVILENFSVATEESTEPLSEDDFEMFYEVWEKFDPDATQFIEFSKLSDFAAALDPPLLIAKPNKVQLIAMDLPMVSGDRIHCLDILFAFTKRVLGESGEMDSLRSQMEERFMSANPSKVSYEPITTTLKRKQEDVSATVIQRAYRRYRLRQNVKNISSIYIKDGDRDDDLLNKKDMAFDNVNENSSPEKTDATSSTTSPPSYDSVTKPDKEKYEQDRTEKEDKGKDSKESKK
Sequence of hNav1.3 (Q9NY46 whole entry): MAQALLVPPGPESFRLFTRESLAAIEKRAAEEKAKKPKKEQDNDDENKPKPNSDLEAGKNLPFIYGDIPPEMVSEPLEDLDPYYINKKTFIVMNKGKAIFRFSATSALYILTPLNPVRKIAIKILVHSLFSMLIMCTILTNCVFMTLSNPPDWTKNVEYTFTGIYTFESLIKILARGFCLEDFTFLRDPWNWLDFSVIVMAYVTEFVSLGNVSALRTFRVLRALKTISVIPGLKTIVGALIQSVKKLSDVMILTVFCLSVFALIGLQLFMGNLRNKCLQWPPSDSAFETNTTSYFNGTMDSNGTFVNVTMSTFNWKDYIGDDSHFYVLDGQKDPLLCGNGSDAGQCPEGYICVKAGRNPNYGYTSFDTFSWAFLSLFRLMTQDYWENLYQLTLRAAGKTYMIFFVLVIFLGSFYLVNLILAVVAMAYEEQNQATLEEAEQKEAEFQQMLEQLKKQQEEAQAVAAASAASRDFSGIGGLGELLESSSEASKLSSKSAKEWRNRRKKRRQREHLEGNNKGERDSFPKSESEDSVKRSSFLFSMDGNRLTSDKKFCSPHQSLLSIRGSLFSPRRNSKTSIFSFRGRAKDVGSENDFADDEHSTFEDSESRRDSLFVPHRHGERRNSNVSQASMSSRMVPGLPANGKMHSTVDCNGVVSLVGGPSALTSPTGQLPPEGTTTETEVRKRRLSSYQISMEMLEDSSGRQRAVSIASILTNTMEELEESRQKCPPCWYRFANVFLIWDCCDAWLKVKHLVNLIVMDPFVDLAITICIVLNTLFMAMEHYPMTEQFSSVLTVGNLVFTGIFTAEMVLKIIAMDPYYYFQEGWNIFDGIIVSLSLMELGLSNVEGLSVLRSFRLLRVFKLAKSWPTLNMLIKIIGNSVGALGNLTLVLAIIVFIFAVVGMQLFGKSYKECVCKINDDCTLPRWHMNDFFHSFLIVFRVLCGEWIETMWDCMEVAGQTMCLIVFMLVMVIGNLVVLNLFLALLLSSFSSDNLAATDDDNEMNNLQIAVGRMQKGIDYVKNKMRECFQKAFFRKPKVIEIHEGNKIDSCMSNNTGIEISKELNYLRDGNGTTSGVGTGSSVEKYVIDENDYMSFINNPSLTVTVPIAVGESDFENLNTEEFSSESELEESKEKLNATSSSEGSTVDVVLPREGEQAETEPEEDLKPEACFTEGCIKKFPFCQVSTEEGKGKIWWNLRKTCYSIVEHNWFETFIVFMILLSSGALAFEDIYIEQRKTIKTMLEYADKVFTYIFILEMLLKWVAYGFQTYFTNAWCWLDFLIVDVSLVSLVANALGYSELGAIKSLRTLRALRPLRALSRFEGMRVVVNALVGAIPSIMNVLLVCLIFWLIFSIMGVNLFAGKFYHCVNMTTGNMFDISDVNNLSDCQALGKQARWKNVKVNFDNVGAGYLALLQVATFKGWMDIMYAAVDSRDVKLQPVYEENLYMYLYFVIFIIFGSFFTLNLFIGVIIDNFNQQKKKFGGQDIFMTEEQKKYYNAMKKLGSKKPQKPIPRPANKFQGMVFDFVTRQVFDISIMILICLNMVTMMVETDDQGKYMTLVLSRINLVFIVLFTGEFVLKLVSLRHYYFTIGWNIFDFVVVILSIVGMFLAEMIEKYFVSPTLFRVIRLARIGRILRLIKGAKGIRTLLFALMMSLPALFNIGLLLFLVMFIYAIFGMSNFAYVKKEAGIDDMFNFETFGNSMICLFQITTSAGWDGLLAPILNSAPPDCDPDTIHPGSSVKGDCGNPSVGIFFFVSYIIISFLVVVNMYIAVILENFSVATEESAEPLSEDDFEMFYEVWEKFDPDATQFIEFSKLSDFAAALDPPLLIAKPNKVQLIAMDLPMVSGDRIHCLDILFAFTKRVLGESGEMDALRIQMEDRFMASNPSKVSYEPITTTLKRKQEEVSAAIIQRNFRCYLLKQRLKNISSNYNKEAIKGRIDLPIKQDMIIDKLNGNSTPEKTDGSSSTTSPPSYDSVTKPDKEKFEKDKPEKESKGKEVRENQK

SMILES | IC50 ([1]; IonWorks Quattro, Table 6) [µM] | Nav1.4/Nav1.7 ([1]; Table 6) | IC50 [2] [µM] | IC50 ([3]; IonWorks Quattro, Table 6) [µM] | IC50 ([4]; IonWorks Quattro, Table 6) [µM] | IC50 [1] [µM] | Nav1.4/Nav1.7 ([2]; ratio of IonWorks Quattro IC50 values, Nav1.4 over Nav1.7) | IC50 [3] [µM] | IC50 [4] [µM] | IC50 ([1]; IonWorks Quattro, Table 9) [µM] | IC50 ([2]; IonWorks Quattro, […]) [µM] | IC50 ([3]; IonWorks Quattro, Table 9) [µM] | IC50 ([4]; IonWorks Quattro, Table 9) [µM]
CC[C@H](C)[C@H](NC(=O)[C@@H](NC(=O)[C@H](CCCCN)NC(=O)[C@H](CCCNC(=N)N)NC(=O)[C@@H]1CSSC[C@@H]2NC(=O)[C@H](C)NC(=O)[C@H](CCCNC(=N)N)NC(=O)[C@H](CCCCN)NC(=O)[C@H](CO)NC(=O)[C@H](CC(=O)O)NC(=O)[C@@H]3CSSC[C@H](NC(=O)[C@H](CCCNC(=N)N)NC(=O)[C@H](CC(C)C)NC(=O)CNC(=O)[C@H](CCC(=O)O)NC(=O)[C@H](CSSC[C@H](NC(=O)[C@@H](N)Cc4ccc(O)cc4)C(=O)N[C@@H](CCC(N)=O)C(=O)N[C@@H](CCCCN)C(=O)N[C@@H](Cc4c[nH]c5ccccc45)C(=O)N[C@@H](CCSC)C(=O)N[C@@H](Cc4c[nH]c5ccccc45)C(=O)N[C@@H](CCCCN)C(=O)N3)NC2=O)C(=O)N[C@@H](CCCCN)C(=O)N[C@@H](CC(C)C)C(=O)N[C@@H](Cc2c[nH]c3ccccc23)C(=O)N1)[C@@H](C)CC)C(N)=O [compound 76] | 0.1 | 3 | 0.031 | 0.1 | 3.7 |  |  |  |  |  |  |  | 
CC[C@H](C)[C@H](NC(=O)[C@@H](NC(=O)[C@H](CCCCN)NC(=O)[C@H](CCCNC(=N)N)NC(=O)[C@@H]1CSSC[C@@H]2NC(=O)[C@H](C)NC(=O)[C@H](CCCNC(=N)N)NC(=O)[C@H](CCCCN)NC(=O)[C@H](CO)NC(=O)[C@H](CC(=O)O)NC(=O)[C@@H]3CSSC[C@H](NC(=O)[C@H](CCCNC(=N)N)NC(=O)[C@H](CC(C)C)NC(=O)CNC(=O)[C@H](CCC(=O)O)NC(=O)[C@H](CSSC[C@H](NC(=O)[C@@H](N)Cc4ccc(O)cc4)C(=O)N[C@@H](CCC(N)=O)C(=O)N[C@@H](CCCCN)C(=O)N[C@@H](Cc4c[nH]c5ccccc45)C(=O)N[C@@H](CCSC)C(=O)N[C@@H](Cc4c[nH]c5ccccc45)C(=O)N[C@@H]([C@@H](C)O)C(=O)N3)NC2=O)C(=O)N[C@@H](CCCCN)C(=O)N[C@@H](CCCCN)C(=O)N[C@@H](Cc2c[nH]c3ccccc23)C(=O)N1)[C@@H](C)CC)C(N)=O [compound 85] | 0.29 | 1 | 0.24 | 0.14 | 4.1 |  |  |  |  |  |  |  | 
CC[C@H](C)[C@H](NC(=O)[C@@H](NC(=O)[C@H](CCCCN)NC(=O)[C@H](CCCNC(=N)N)NC(=O)[C@@H]1CSSC[C@@H]2NC(=O)[C@H](C)NC(=O)[C@H](CCCNC(=N)N)NC(=O)[C@H](CCCCN)NC(=O)[C@H](CO)NC(=O)[C@H](CC(=O)O)NC(=O)[C@@H]3CSSC[C@H](NC(=O)[C@H](CCCNC(=N)N)NC(=O)[C@H](CC(C)C)NC(=O)CNC(=O)[C@H](CCC(=O)O)NC(=O)[C@H](CSSC[C@H](NC(=O)[C@@H](N)Cc4ccc(O)cc4)C(=O)N[C@@H](CCC(N)=O)C(=O)N[C@@H](CCCCN)C(=O)N[C@@H](Cc4c[nH]c5ccccc45)C(=O)N[C@@H](CCSC)C(=O)N[C@@H](CCCNC(=N)N)C(=O)N[C@@H]([C@@H](C)O)C(=O)N3)NC2=O)C(=O)N[C@@H](CCCCN)C(=O)N[C@@H](CC(C)C)C(=O)N[C@@H](Cc2c[nH]c3ccccc23)C(=O)N1)[C@@H](C)CC)C(N)=O [compound 95] | 0.4 | 8 | 0.053 | 0.08 | > 5 |  |  |  |  |  |  |  | 
CC[C@H](C)[C@H](NC(=O)[C@@H](NC(=O)[C@H](CCCCN)NC(=O)[C@H](CCCNC(=N)N)NC(=O)[C@@H]1CSSC[C@@H]2NC(=O)[C@H](C)NC(=O)[C@H](CCCNC(=N)N)NC(=O)[C@H](CCCCN)NC(=O)[C@H](CO)NC(=O)[C@H](CC(=O)O)NC(=O)[C@@H]3CSSC[C@H](NC(=O)[C@H](CCCNC(=N)N)NC(=O)[C@H](CC(C)C)NC(=O)CNC(=O)[C@H](CCC(=O)O)NC(=O)[C@H](CSSC[C@H](NC(=O)[C@@H](N)Cc4ccc(O)cc4)C(=O)N[C@@H](CCCNC(=N)N)C(=O)N[C@@H](CCCCN)C(=O)N[C@@H](Cc4c[nH]c5ccccc45)C(=O)N[C@@H](CCSC)C(=O)N[C@@H](Cc4c[nH]c5ccccc45)C(=O)N[C@@H]([C@@H](C)O)C(=O)N3)NC2=O)C(=O)N[C@@H](CCCCN)C(=O)N[C@@H](CC(C)C)C(=O)N[C@@H](Cc2c[nH]c3ccccc23)C(=O)N1)[C@@H](C)CC)C(N)=O [compound 91] | 0.14 | 6 | 0.025 | 0.06 | 3.2 |  |  |  |  |  |  |  | 
CC[C@H](C)[C@H](NC(=O)[C@@H](NC(=O)[C@H](CCCCN)NC(=O)[C@H](CCCNC(=N)N)NC(=O)[C@@H]1CSSC[C@@H]2NC(=O)[C@H](C)NC(=O)[C@H](CCCNC(=N)N)NC(=O)[C@H](CCCCN)NC(=O)[C@H](CO)NC(=O)[C@H](CC(=O)O)NC(=O)[C@@H]3CSSC[C@H](NC(=O)[C@H](CCCNC(=N)N)NC(=O)[C@H](CC(C)C)NC(=O)CNC(=O)[C@H](CCC(=O)O)NC(=O)[C@H](CSSC[C@H](NC(=O)[C@@H](N)CCCCN)C(=O)N[C@@H](CCC(N)=O)C(=O)N[C@@H](CCCCN)C(=O)N[C@@H](Cc4c[nH]c5ccccc45)C(=O)N[C@@H](CCSC)C(=O)N[C@@H](Cc4c[nH]c5ccccc45)C(=O)N[C@@H]([C@@H](C)O)C(=O)N3)NC2=O)C(=O)N[C@@H](CCCCN)C(=O)N[C@@H](CC(C)C)C(=O)N[C@@H](Cc2c[nH]c3ccccc23)C(=O)N1)[C@@H](C)CC)C(N)=O [compound 71] | 0.06 | 12 | 0.005 | 0.05 | 2.3 |  |  |  |  |  |  |  | 
CC[C@H](C)[C@H](NC(=O)[C@H](Cc1cccc2ccccc12)NC(=O)[C@H](CCCCN)NC(=O)[C@H](CCCNC(=N)N)NC(=O)[C@@H]1CSSC[C@@H]2NC(=O)[C@H](C)NC(=O)[C@H](CCCNC(=N)N)NC(=O)[C@H](CCCCN)NC(=O)[C@H](CO)NC(=O)[C@H](CC(=O)O)NC(=O)[C@@H]3CSSC[C@H](NC(=O)[C@H](CCCNC(=N)N)NC(=O)[C@H](CC(C)C)NC(=O)CNC(=O)[C@H](CCC(=O)O)NC(=O)[C@H](CSSC[C@H](NC(=O)[C@@H](N)Cc4ccc(O)cc4)C(=O)N[C@@H](CCC(N)=O)C(=O)N[C@@H](CCCCN)C(=O)N[C@@H](Cc4c[nH]c5ccccc45)C(=O)N[C@@H](CCSC)C(=O)N[C@@H](Cc4c[nH]c5ccccc45)C(=O)N[C@@H]([C@@H](C)O)C(=O)N3)NC2=O)C(=O)N[C@@H](CCCCN)C(=O)N[C@@H](CC(C)C)C(=O)N[C@@H](Cc2c[nH]c3ccccc23)C(=O)N1)C(N)=O [compound 46] | 0.1 | 17 | 0.006 | 0.06 | 3.6 |  |  |  |  |  |  |  | 
CC[C@H](C)[C@H](NC(=O)[C@H](CCCCN)NC(=O)[C@H](CCCNC(=N)N)NC(=O)[C@@H]1CSSC[C@@H]2NC(=O)[C@H](C)NC(=O)[C@H](CCCNC(=N)N)NC(=O)[C@H](CCCCN)NC(=O)[C@H](CO)NC(=O)[C@H](CC(=O)O)NC(=O)[C@@H]3CSSC[C@H](NC(=O)[C@H](CCCNC(=N)N)NC(=O)[C@H](CC(C)C)NC(=O)CNC(=O)[C@H](CCC(=O)O)NC(=O)[C@H](CSSC[C@H](NC(=O)[C@@H](N)Cc4ccc(O)cc4)C(=O)N[C@@H](CCC(N)=O)C(=O)N[C@@H](CCCCN)C(=O)N[C@@H](Cc4c[nH]c5ccccc45)C(=O)N[C@@H](CCSC)C(=O)N[C@@H](Cc4c[nH]c5ccccc45)C(=O)N[C@@H]([C@@H](C)O)C(=O)N3)NC2=O)C(=O)N[C@@H](CCCCN)C(=O)N[C@@H](CC(C)C)C(=O)N[C@@H](Cc2c[nH]c3ccccc23)C(=O)N1)C(=O)N[C@@H](CCCCN)C(N)=O [compound 89] | 1.3 | 11 | 0.11 | 2.4 | > 5 |  |  |  |  |  |  |  | 
CC[C@@H]1NC(=O)[C@H](CC(C)C)NC(=O)CNC(=O)[C@H](CCC(=O)O)NC(=O)[C@@H]2CSSC[C@H](NC(=O)[C@@H](N)Cc3ccc(O)cc3)C(=O)N[C@@H](CCC(N)=O)C(=O)N[C@@H](CCCCN)C(=O)N[C@@H](Cc3c[nH]c4ccccc34)C(=O)N[C@@H](CCSC)C(=O)N[C@@H](Cc3c[nH]c4ccccc34)C(=O)N[C@@H]([C@@H](C)O)C(=O)N[C@H]3CSSC[C@H](NC1=O)C(=O)N[C@@H](CCCCN)C(=O)N[C@@H](CC(C)C)C(=O)N[C@@H](Cc1c[nH]c4ccccc14)C(=O)N[C@H](C(=O)N[C@@H](CCCNC(=N)N)C(=O)N[C@@H](CCCCN)C(=O)N[C@H](C(=O)N[C@H](C(N)=O)[C@@H](C)CC)[C@@H](C)CC)CSSC[C@H](NC(=O)[C@H](C)NC(=O)[C@H](CCCNC(=N)N)NC(=O)[C@H](CCCCN)NC(=O)[C@H](CO)NC(=O)[C@H](CC(=O)O)NC3=O)C(=O)N2 [compound 117] |  |  | 0.05 |  |  | 0.9 | 19 | 0.97 | 10.6 |  |  |  | 
CCCC[C@@H]1NC(=O)[C@H](Cc2cn(CCCOCCOCCOCCOCCOCCOCCOCCOCCOCCOCCN)nn2)NC(=O)[C@H](CCCCN)NC(=O)[C@H](CCC(N)=O)NC(=O)[C@@H](NC(=O)[C@@H](N)Cc2ccc(O)cc2)CSSC[C@@H]2NC(=O)[C@@H]3CSSC[C@@H](C(=O)N[C@@H](CCCNC(=N)N)C(=O)N[C@@H](CCCCN)C(=O)N[C@H](C(=O)N[C@H](C(N)=O)[C@@H](C)CC)[C@@H](C)CC)NC(=O)[C@H](Cc4c[nH]c5ccccc45)NC(=O)[C@H](CC(C)C)NC(=O)[C@H](CCCCN)NC(=O)[C@H](CSSC[C@H](NC(=O)[C@H]([C@@H](C)O)NC(=O)[C@H](Cc4c[nH]c5ccccc45)NC1=O)C(=O)N[C@@H](CC(=O)O)C(=O)N[C@@H](CO)C(=O)N[C@@H](CCCCN)C(=O)N[C@@H](CCCNC(=N)N)C(=O)N[C@@H](C)C(=O)N3)NC(=O)[C@H](CCCNC(=N)N)NC(=O)[C@H](CC(C)C)NC(=O)CNC(=O)[C@H](CCC(=O)O)NC2=O [compound 251] |  |  |  |  |  |  |  |  |  | > 7 | > 7 | > 7 | > 7

— US10344060B2 (priority 2013, dated 2019)
